Test results from patent publication US7858655B2, “Drug preparation comprising α-lipoic acid, ambroxol and/or inhibitors of the angiotensin-converting enzyme (ACE) and its use for the treatment of neurodegenerative diseases” (Keyneurotek Pharmaceuticals AG, priority 2004, dated 2010).
Counter-ions that a name gives are not always drawn.

System: neuronal cells in organotypical hippocampal tissue cuts
Assay: transient oxygen/glucose deprivation (OGD) of organotypical hippocampal tissue cuts, neuronal damage
Assay type: cell-based, rats
Settings: for neuronal damage, % of the damaged surface area, Median / neuronal damage, % of the damaged surface area, Average Value: after standard OGD with the substance applied, cocktail = α-lipoic acid 10 μg/ml, ambroxol 10 μM, Enalapril 20 μg/ml; for neuronal damage, % of the damaged surface area, Average Value: Control OGD (vehicle) 11.70-13.98; for neuroprotective effect, reduction of the neuronal damage after OGD (in words): after transient OGD, versus standard damage
From the text: For examining the neuroprotective effect of the thiol-reactive substances, the procedure of a transient ischemia for organotypical hippocampal tissue cuts was used, which procedure was standardized in our laboratory. By such a procedure, there are obtained three-dimensional cultivated explantates having a high prediction value for subsequent clinical experiments. In those tissue cultures containing neuronal as well as non-neuronal cells, highly complex intercellular connections are maintained largely. They are of extraordinary importance for the functionality of the whole CNS. The cerebral tissue cultures are exposed to a degenerative event which results into a death of neuronal cells in analogy to clinical situations. The tissue cuts (375 μm) were prepared subsequently from the hippocampus of rats (P7). The cultivation of those cut cultures was effected on membrane inserts having a pore size of 0.02 μm. After 10 to 12 days of cultivation (37° C. in an incubator; 3.3% CO2; 98% relative air humidity), the restructuration processes within the tissue cultures were finished, and a clinical relevant neurodegenerative event was simulated on the tissue cuts by means of a transient oxygen/glucose deprivation. The effect of the substanc(es) was measured in the form of a standard damage change (vehicle application). […] There was quantified the neuronal damage after a standard OGD with and without the application of the cocktail as well as the damage by the application of the cocktail per se (optional toxicity of the substance). The damage is expressed in % of the damaged surface area. In order to obtain such figures, in each tissue cut the whole surface area was compared with the damaged surface area. […] The experiments are based on the protocol described in Example 2. In the course of the experiments shown in FIGS. […], the protective effect of the cocktail was compared with the standard damage after OGD and with the effect resulting from an application of the single substances. […] Tables […] show the relevant statistical parameters.

SMILES	neuronal damage, % of the damaged surface area, Median [%]	neuronal damage, % of the damaged surface area, Average Value [%]	neuroprotective effect, reduction of the neuronal damage after OGD (in words)
CCOC(=O)[C@H](CCc1ccccc1)N[C@@H](C)C(=O)N1CCC[C@H]1C(=O)O [Enalapril, 1-{N-[(S)-1-Ethoxycarbonyl-3-phenylpropyl-]L-alanyl-}L-proline]	8.70	11.23	neither α-lipoic acid nor ambroxol nor the ACE inhibitor, if applied alone, were capable of reducing the neuronal damage significantly
O=C(O)CCCC[C@@H]1CCSS1 [α-Lipoic Acid, (R)-5-(1,2-dithiolane-3-yl-)pentanoic acid]	13.54	14.82	neither α-lipoic acid nor ambroxol nor the ACE inhibitor, if applied alone, were capable of reducing the neuronal damage significantly
Nc1c(Br)cc(Br)cc1CNC1CCC(O)CC1 (stereo not drawn) [Ambroxol, trans-4-(2-amino-3,5-dibromobenzylamino-) cyclohexane hydrochloride]	8.32	10.79	neither α-lipoic acid nor ambroxol nor the ACE inhibitor, if applied alone, were capable of reducing the neuronal damage significantly
